Values of other authors, collected in EP0137640A1, “Chain extended analogues of methotrexate and aminopterin” (DANA-FARBER CANCER INSTITUTE, INC., priority 1983, dated 1985).

Test system: carboxypeptidase Gl
Details: as described by Chabner et al. (1972) Nature, 239, 395

CN(Cc1cnc2nc(N)nc(N)c2n1)c1ccc(C(=O)N[C@@H](CCC(=O)O)C(=O)O)cc1 [MTX, 4-amino-4-deoxy-N^10-methyl-pteroylglutamic acid]
cleavage by carboxypeptidase Gl: rapidly cleaved
